Assay results taken from patent publication US8735601B2, “Pentamethine cyanine fluorescent dye with N-substituting at β-position of conjugated chain” (Dalian University of Technology, priority 2010, dated 2014).

How the values were obtained:
[1] = Absorption and emission spectra of dyes in different solvents; type: physicochemical; parameters: key to Δλ1 / Δλ2: Stokes shift in nm; ε1 (molar extinction coefficient) / ε2 (molar extinction coefficient): scale not given here; settings: for Δλ1: Stokes shift to absorption peak 1; for Δλ2: Stokes shift to absorption peak 2
Source text: In the present invention, compounds IIa to IIg were synthesized based on compound II, and their spectral properties were investigated. Compared with the traditional pentamethine cyanine dye, for the novel pentamethine cyanine dye with N-substituting at β-position (deviated position), it was observed that, evident blue shift of absorption and emission wavelengths occurred, absorption wavelength blue shifted even largely than that of emission wavelength, absorption spectrum and fluorescence spectrum were no longer mirror-symmetric and had two absorption peaks and a single emission peak, and larger Stokes shift (minimum 60 and 150 nm, and maximum 90 and 230 nm) appeared.

[2] = Measurement of fluorescence quantum yield (Rhodamine B in ethanol as reference); type: physicochemical
[3] = target: bovine serum albumin (BSA) (Bos taurus, UniProt P02769); assay: Titration of dye solution with BSA, fluorescence and UV absorption; type: binding; settings: dye solution 1 μM, PBS pH 7.4
Description: (§1) The solutions of compounds Ha to IIc in a concentration of 1×10^−6M (10 mM PBS buffer (pH=7.4) was used as solvent) was prepared, and 3 ml of the each dye solution was added into a cuvette, respectively. Then, an aqueous bovine serum albumin (BSA) stock solution with the concentration of 50 μg/μL (750 μM) was added dropwise into each of the dye solution. The fluorescence intensity of the dye was measured each 5 minutes after addition of BSA for fluorescence becoming stable, on UV-visible spectrophotometer (Mode: Hp8453) and fluorescence spectrophotometer (Mode: FP-6500).
Especially for dyes IIb and IIc, the fluorescence intensity thereof was increased linearly with addition of BSA to arrive at more than 30 folds.

calf thymus DNA (ct-DNA) = assay: Titration of dye solution with calf thymus DNA, fluorescence and UV absorption; type: binding; settings: dye 1×10^−6 M, PBS pH 7.4
Description: as §1, with “cuvette separately.” for “cuvette, respectively.”, “calf thymus DNA” for “bovine serum albumin (BSA)”, “was prepared,” for “with”, “the calf thymus DNA stock solution was determined as 1.5×10^−3 mM by the absorbance at 260 nm on UV absorption spectrophotometer. The calf thymus DNA stock solution” for “50 μg/μL (750 μM)”
From the interaction results of three dyes with calf thymus DNA, it can be known that no evident fluorescence increase was found after the interaction of the dye with the DNA. FIGS. 4 and 5 were titration figures of the interaction of dye lib with calf thymus DNA. […] All of these indicated DNA could be differentiated from protein by dyes IIa, IIb and IIc.

bovine serum albumin (BSA), sequence (P02769 25-607): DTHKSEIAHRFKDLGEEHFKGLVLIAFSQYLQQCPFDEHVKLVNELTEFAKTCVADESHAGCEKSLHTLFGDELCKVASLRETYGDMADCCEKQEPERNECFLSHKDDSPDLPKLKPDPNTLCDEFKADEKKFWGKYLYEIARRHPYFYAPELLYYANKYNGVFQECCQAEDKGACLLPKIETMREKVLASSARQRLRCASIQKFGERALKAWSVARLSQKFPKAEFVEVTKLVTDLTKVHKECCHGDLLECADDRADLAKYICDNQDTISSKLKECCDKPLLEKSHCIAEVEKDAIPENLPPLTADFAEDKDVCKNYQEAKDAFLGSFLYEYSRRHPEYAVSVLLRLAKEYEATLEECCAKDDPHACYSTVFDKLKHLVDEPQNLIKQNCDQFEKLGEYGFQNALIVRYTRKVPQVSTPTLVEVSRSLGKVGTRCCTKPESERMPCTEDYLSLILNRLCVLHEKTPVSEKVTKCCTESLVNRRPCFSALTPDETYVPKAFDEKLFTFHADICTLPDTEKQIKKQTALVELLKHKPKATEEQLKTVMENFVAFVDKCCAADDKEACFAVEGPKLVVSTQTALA

CCN1/C(=C/C=C/C(=C/C2=[N+](CC)c3ccccc3C2(C)C)NCCO)C(C)(C)c2ccccc21 [Dye IIb]
Δλ1 ([1]; solvent DCM): 79 | Δλ1 ([1]; solvent DMSO): 91 | Δλ1 ([1]; solvent Ethanol): 91 | Δλ1 ([1]; solvent Methanol): 89 | Δλ1 ([1]; solvent THF): 82 | Δλ1 ([1]; solvent Water): 103 | Δλ2 ([1]; solvent DCM): 167 | Δλ2 ([1]; solvent DMSO): 170 | Δλ2 ([1]; solvent Ethanol): 177 | Δλ2 ([1]; solvent Methanol): 175 | Δλ2 ([1]; solvent THF): 158 | Δλ2 ([1]; solvent Water): 190 | ε1 (molar extinction coefficient) ([1]; solvent DCM): 3.4 cm^−1M | ε2 (molar extinction coefficient) ([1]; solvent DCM): 1.7 cm^−1M | λabs1 ([1]; solvent DCM): 517 nm | λbs2 ([1]; solvent DCM): 429 nm | λem ([1]; solvent DCM): 596 nm | ε1 (molar extinction coefficient) ([1]; solvent DMSO): 3.0 cm^−1M | ε2 (molar extinction coefficient) ([1]; solvent DMSO): 2.3 cm^−1M | λabs1 ([1]; solvent DMSO): 515 nm | λbs2 ([1]; solvent DMSO): 436 nm | λem ([1]; solvent DMSO): 606 nm | ε1 (molar extinction coefficient) ([1]; solvent Ethanol): 3.3 cm^−1M | ε2 (molar extinction coefficient) ([1]; solvent Ethanol): 2.3 cm^−1M | λabs1 ([1]; solvent Ethanol): 521 nm | λbs2 ([1]; solvent Ethanol): 435 nm | λem ([1]; solvent Ethanol): 612 nm | ε1 (molar extinction coefficient) ([1]; solvent Methanol): 3.1 cm^−1M | ε2 (molar extinction coefficient) ([1]; solvent Methanol): 2.4 cm^−1M | λabs1 ([1]; solvent Methanol): 519 nm | λbs2 ([1]; solvent Methanol): 433 nm | λem ([1]; solvent Methanol): 608 nm | ε1 (molar extinction coefficient) ([1]; solvent THF): 3.6 cm^−1M | ε2 (molar extinction coefficient) ([1]; solvent THF): 2.2 cm^−1M | λabs1 ([1]; solvent THF): 503 nm | λbs2 ([1]; solvent THF): 427 nm | λem ([1]; solvent THF): 585 nm | ε1 (molar extinction coefficient) ([1]; solvent Water): 2.1 cm^−1M | ε2 (molar extinction coefficient) ([1]; solvent Water): 1.7 cm^−1M | λabs1 ([1]; solvent Water): 517 nm | λbs2 ([1]; solvent Water): 430 nm | λem ([1]; solvent Water): 620 nm | Φ1 (fluorescence quantum yield) ([2]; solvent DCM): 0.114 | Φ2 (fluorescence quantum yield) ([2]; solvent DCM): 0.100 | Φ1 (fluorescence quantum yield) ([2]; solvent DMSO): 0.009 | Φ2 (fluorescence quantum yield) ([2]; solvent DMSO): 0.008 | Φ1 (fluorescence quantum yield) ([2]; solvent Ethanol): 0.019 | Φ2 (fluorescence quantum yield) ([2]; solvent Ethanol): 0.017 | Φ1 (fluorescence quantum yield) ([2]; solvent Methanol): 0.009 | Φ2 (fluorescence quantum yield) ([2]; solvent Methanol): 0.008 | Φ1 (fluorescence quantum yield) ([2]; solvent THF): 0.085 | Φ2 (fluorescence quantum yield) ([2]; solvent THF): 0.075 | Φ1 (fluorescence quantum yield) ([2]; solvent Water): 0.002 | Φ2 (fluorescence quantum yield) ([2]; solvent Water): 0.002 | change of fluorescence intensity by interaction with protein (BSA) [3]: largely increased | change of fluorescence by interaction with ct-DNA (calf thymus DNA (ct-DNA)): little fluorescence increase

CCN1/C(=C/C=C/C(N)=C/C2=[N+](CC)c3ccccc3C2(C)C)C(C)(C)c2ccccc21 [Dye IIa]
Δλ1 ([1]; solvent DCM): 63 | Δλ1 ([1]; solvent DMSO): 75 | Δλ1 ([1]; solvent Ethanol): 75 | Δλ1 ([1]; solvent Methanol): 78 | Δλ1 ([1]; solvent THF): 64 | Δλ1 ([1]; solvent Water): 92 | Δλ2 ([1]; solvent DCM): 191 | Δλ2 ([1]; solvent DMSO): 189 | Δλ2 ([1]; solvent Ethanol): 182 | Δλ2 ([1]; solvent Methanol): 188 | Δλ2 ([1]; solvent THF): 182 | Δλ2 ([1]; solvent Water): 203 | ε1 (molar extinction coefficient) ([1]; solvent DCM): 5.4 cm^−1M | ε2 (molar extinction coefficient) ([1]; solvent DCM): 1.6 cm^−1M | λabs1 ([1]; solvent DCM): 546 nm | λbs2 ([1]; solvent DCM): 418 nm | λem ([1]; solvent DCM): 609 nm | ε1 (molar extinction coefficient) ([1]; solvent DMSO): 4.9 cm^−1M | ε2 (molar extinction coefficient) ([1]; solvent DMSO): 1.7 cm^−1M | λabs1 ([1]; solvent DMSO): 533 nm | λbs2 ([1]; solvent DMSO): 419 nm | λem ([1]; solvent DMSO): 608 nm | ε1 (molar extinction coefficient) ([1]; solvent Ethanol): 4.8 cm^−1M | ε2 (molar extinction coefficient) ([1]; solvent Ethanol): 2.0 cm^−1M | λabs1 ([1]; solvent Ethanol): 527 nm | λbs2 ([1]; solvent Ethanol): 420 nm | λem ([1]; solvent Ethanol): 602 nm | ε1 (molar extinction coefficient) ([1]; solvent Methanol): 5.1 cm^−1M | ε2 (molar extinction coefficient) ([1]; solvent Methanol): 2.0 cm^−1M | λabs1 ([1]; solvent Methanol): 528 nm | λbs2 ([1]; solvent Methanol): 418 nm | λem ([1]; solvent Methanol): 606 nm | ε1 (molar extinction coefficient) ([1]; solvent THF): 4.8 cm^−1M | ε2 (molar extinction coefficient) ([1]; solvent THF): 1.6 cm^−1M | λabs1 ([1]; solvent THF): 526 nm | λbs2 ([1]; solvent THF): 408 nm | λem ([1]; solvent THF): 590 nm | ε1 (molar extinction coefficient) ([1]; solvent Water): 3.6 cm^−1M | ε2 (molar extinction coefficient) ([1]; solvent Water): 1.7 cm^−1M | λabs1 ([1]; solvent Water): 527 nm | λbs2 ([1]; solvent Water): 416 nm | λem ([1]; solvent Water): 619 nm | Φ1 (fluorescence quantum yield) ([2]; solvent DCM): 0.115 | Φ2 (fluorescence quantum yield) ([2]; solvent DCM): 0.032 | Φ1 (fluorescence quantum yield) ([2]; solvent DMSO): 0.020 | Φ2 (fluorescence quantum yield) ([2]; solvent DMSO): 0.009 | Φ1 (fluorescence quantum yield) ([2]; solvent Ethanol): 0.014 | Φ2 (fluorescence quantum yield) ([2]; solvent Ethanol): 0.009 | Φ1 (fluorescence quantum yield) ([2]; solvent Methanol): 0.007 | Φ2 (fluorescence quantum yield) ([2]; solvent Methanol): 0.004 | Φ1 (fluorescence quantum yield) ([2]; solvent THF): 0.053 | Φ2 (fluorescence quantum yield) ([2]; solvent THF): 0.008 | Φ1 (fluorescence quantum yield) ([2]; solvent Water): 0.002 | Φ2 (fluorescence quantum yield) ([2]; solvent Water): 0.001 | change of fluorescence intensity by interaction with protein (BSA) ([3]; listed as Ha): largely increased | change of fluorescence by interaction with ct-DNA (calf thymus DNA (ct-DNA); listed as Ha): little fluorescence increase

CCN1/C(=C/C=C/C(=C/C2=[N+](CC)c3ccccc3C2(C)C)N(CCO)CCO)C(C)(C)c2ccccc21 [Dye IIc]
Δλ1 ([1]; solvent DCM): 96 | Δλ1 ([1]; solvent DMSO): 97 | Δλ1 ([1]; solvent Ethanol): 97 | Δλ1 ([1]; solvent Methanol): 97 | Δλ1 ([1]; solvent THF): 88 | Δλ1 ([1]; solvent Water): 98 | Δλ2 ([1]; solvent DCM): 168 | Δλ2 ([1]; solvent DMSO): 154 | Δλ2 ([1]; solvent Ethanol): 167 | Δλ2 ([1]; solvent Methanol): 169 | Δλ2 ([1]; solvent THF): 155 | Δλ2 ([1]; solvent Water): 168 | ε1 (molar extinction coefficient) ([1]; solvent DCM): 2.8 cm^−1M | ε2 (molar extinction coefficient) ([1]; solvent DCM): 2.1 cm^−1M | λabs1 ([1]; solvent DCM): 526 nm | λbs2 ([1]; solvent DCM): 454 nm | λem ([1]; solvent DCM): 622 nm | ε1 (molar extinction coefficient) ([1]; solvent DMSO): 2.5 cm^−1M | ε2 (molar extinction coefficient) ([1]; solvent DMSO): 2.1 cm^−1M | λabs1 ([1]; solvent DMSO): 515 nm | λbs2 ([1]; solvent DMSO): 458 nm | λem ([1]; solvent DMSO): 612 nm | ε1 (molar extinction coefficient) ([1]; solvent Ethanol): 2.8 cm^−1M | ε2 (molar extinction coefficient) ([1]; solvent Ethanol): 2.3 cm^−1M | λabs1 ([1]; solvent Ethanol): 521 nm | λbs2 ([1]; solvent Ethanol): 451 nm | λem ([1]; solvent Ethanol): 618 nm | ε1 (molar extinction coefficient) ([1]; solvent Methanol): 3.1 cm^−1M | ε2 (molar extinction coefficient) ([1]; solvent Methanol): 2.2 cm^−1M | λabs1 ([1]; solvent Methanol): 522 nm | λbs2 ([1]; solvent Methanol): 450 nm | λem ([1]; solvent Methanol): 619 nm | ε1 (molar extinction coefficient) ([1]; solvent THF): 3.1 cm^−1M | ε2 (molar extinction coefficient) ([1]; solvent THF): 1.9 cm^−1M | λabs1 ([1]; solvent THF): 517 nm | λbs2 ([1]; solvent THF): 450 nm | λem ([1]; solvent THF): 605 nm | ε1 (molar extinction coefficient) ([1]; solvent Water): 1.8 cm^−1M | ε2 (molar extinction coefficient) ([1]; solvent Water): 1.9 cm^−1M | λabs1 ([1]; solvent Water): 517 nm | λbs2 ([1]; solvent Water): 447 nm | λem ([1]; solvent Water): 615 nm | Φ1 (fluorescence quantum yield) ([2]; solvent DCM): 0.124 | Φ2 (fluorescence quantum yield) ([2]; solvent DCM): 0.061 | Φ1 (fluorescence quantum yield) ([2]; solvent DMSO): 0.005 | Φ2 (fluorescence quantum yield) ([2]; solvent DMSO): 0.005 | Φ1 (fluorescence quantum yield) ([2]; solvent Ethanol): 0.014 | Φ2 (fluorescence quantum yield) ([2]; solvent Ethanol): 0.013 | Φ1 (fluorescence quantum yield) ([2]; solvent Methanol): 0.007 | Φ2 (fluorescence quantum yield) ([2]; solvent Methanol): 0.008 | Φ1 (fluorescence quantum yield) ([2]; solvent THF): 0.109 | Φ2 (fluorescence quantum yield) ([2]; solvent THF): 0.099 | Φ1 (fluorescence quantum yield) ([2]; solvent Water): 0.001 | Φ2 (fluorescence quantum yield) ([2]; solvent Water): 0.001 | change of fluorescence intensity by interaction with protein (BSA) [3]: largely increased | change of fluorescence by interaction with ct-DNA (calf thymus DNA (ct-DNA)): little fluorescence increase
